Assays:
DEX-treated mice [1] = assay: Tail suspension test (TST), neonatal dexamethasone exposure model of depression; type: in vivo; settings: juvenile DEX-treated mice, 10 mg/kg i.p. single injection
Experimental: (§1) A new animal model of depression was prepared by exposing mice neonatally to dexamethasone (hereinafter abbreviated as DEX). […] The mouse model was prepared and reported only recently by the inventors of the present application and their collaborators (Non Patent Literature 18). […] Further, alterations were found in levels of amino acids (glutamate, glutamine, glycine, D-serine, and L-serine) in mouse brains after the neonatal DEX exposure (Non Patent Literature 18). Those amino acids are known to be associated with NMDA receptor mediated neurotransmission. Thus, it is conceivable that alterations in glutamatergic transmission via the NMDA receptor after the neonatal DEX exposure may be involved in the depression-like behavior in the juvenile mice and the adult mice (Non Patent Literature 18).
(§2) The preparation of the animal model of depression and the administration of the agent were specifically performed as described below (FIG. 2A). Male and female ICR mice (9-week-old, Japan SLC, Inc., Hamamatsu, Japan) were used. The mice were given free access to water and feed. A breeding procedure consisted of housing three to four females with one male, for 14 days. On the final day of this period, the females were placed in isolation and checked daily around the expected delivery day. The day of birth was defined as day 0. The mice were injected intraperitoneally with DEX (Wako Pure Chemical Industries, Ltd., Tokyo, Japan) dissolved in saline on day 1, day 2, and day 3 at doses of 0.5 mg/kg body weight, 0.3 mg/kg body weight, and 0.1 mg/kg body weight, respectively. In addition, normal controls were injected with equal volumes (10 ml/kg) of saline.
(§3) The antidepressant effects of the agent were investigated for juvenile mice by behavioral tests such as the TST, the PST, the LMT, and a 1% sucrose preference test (SPT) (FIG. 2A). The TST and the PST were performed twice, i.e., the day (27 hours and 29 hours, respectively) and 7 days after the injection of ketamine, and the LMT and the SPT were performed on the day and 2 days after the injection of ketamine. The TST was performed as described below. First, the mice were taken out from cages, and then a small piece of an adhesive tape was bonded onto a portion approximately 2 cm away from the tip of the tail of the mice. […] The immobility time of each mouse was recorded for 10 minutes. […] The immobility time was calculated as a value obtained by subtracting active time from total time, using the analysis software of the apparatus. Cumulative immobility time was recorded over 6 minutes during a test period. […] The locomotor activity of the mice was counted with SCANET MV-40, and the cumulative exercise of the mice was recorded for 60 minutes. […]

Control C57/B6 mice = assay: Conditioned place preference test (dependence test) in control mice; settings: control mice, 5, 10 or 20 mg/kg, injected on day 4, 6 and 8, test on day 11
Experimental: 15-minute habituation was performed for 3 days. Then, 30-minute conditioning was performed on day 4 to day 10, and a behavioral evaluation test was performed on day 11. Saline was injected on day 5, day 7, and day 9. […] In each of the groups, the injection was performed three times, i.e., on day 4, day 6, and day 8. Saline means a group injected with saline.
The administration of an agent was performed by the same methods as the methods described in Example 2.
The place preference test was performed using a conditioned place preference test apparatus (BrainScienceIdea Co., Ltd., Osaka, Japan). The analysis of the results of the place preference test was performed by one-way analysis of variance (one-way ANOVA), followed by a least significant difference test (LSD test). Data are presented as the mean plus minus standard error of the mean (n=9 or 10 mice/group). *p<0.05 and **p<0.01 indicate significant differences as compared to a group injected with saline.

[2] = test system: medial forebrain bundle self-stimulation in rats; assay: Intracranial self-stimulation (ICSS), frequency-rate procedure; settings: for ICSS, anhedonia: doses 10, 30 mg/kg, Present study; for ICSS frequency-rate response curve: rats, 3, 10 or 30 mg/kg i.p. 2 hours prior to test session, vs saline vehicle
DEX-treated mice [3] = assay: Forced swimming test (FST), neonatal dexamethasone exposure model of depression; type: in vivo; settings: juvenile DEX-treated mice, 10 mg/kg i.p. single injection
Experimental: as §1, §2, §3

Chronic pain patients = settings: chronic pain patients after i.v. R,S-ketamine; Persson et al., 1998; cited from earlier work
patients with depression = settings: cited from earlier work
[4] = 3 mg/kg i.p. 2 hours prior to test session, 10 rats
[5] = 10 mg/kg i.p. 2 hours prior to test session, 10 rats
[6] = 30 mg/kg i.p. 2 hours prior to test session, 10 rats
[7] = baseline session before dosing on the 3 mg/kg test day, 10 rats
[8] = baseline session before dosing on the 10 mg/kg test day, 10 rats
[9] = baseline session before dosing on the 30 mg/kg test day, 10 rats

Structure (SMILES) | immobility time in the TST (DEX-treated mice [1]; 27 hours after injection) | immobility time in the TST (DEX-treated mice [1]; 7 days after injection) | CPP score (conditioned place preference test) (Control C57/B6 mice) | M50, Test, mean log M50 frequency (SEM) [2, 4] | Threshold (T0), Test, mean log T0 frequency (SEM) [2, 4] | Threshold (T0), Test, mean log T0 frequency (SEM) [2, 5] | M50, Test, mean log M50 frequency (SEM) [2, 6] | Threshold (T0), Test, mean log T0 frequency (SEM) [2, 6] | M50, Baseline, mean log M50 frequency (SEM) [2, 7] | Threshold (T0), Baseline, mean log T0 frequency (SEM) [2, 7] | Threshold (T0), Baseline, mean log T0 frequency (SEM) [2, 8] | M50, Baseline, mean log M50 frequency (SEM) [2, 9] | Threshold (T0), Baseline, mean log T0 frequency (SEM) [2, 9] | ICSS, anhedonia [2] | ICSS frequency-rate response curve [2] | immobility time in the FST (DEX-treated mice [3]; 29 hours after injection) | immobility time in the FST (DEX-treated mice [3]; 7 days after injection) | other results
CN[C@@]1(c2ccccc2Cl)CCCCC1=O.Cl [R(−)-ketamine] | markedly reduced the immobility time | significantly reduced the immobility time | did not increase the CPP score | 1.98 (0.01) log/Hz | 1.88 (0.02) log/Hz | 1.93 (0.03) log/Hz | 1.99 (0.02) log/Hz | 1.90 (0.02) log/Hz | 2.00 (0.02) log/Hz | 1.91 (0.02) log/Hz | 1.91 (0.03) log/Hz | 1.98 (0.02) log/Hz | 1.89 (0.02) log/Hz | 10, 30 - no anhedonia | did not significantly alter behavior of rats | markedly reduced the immobility time | significantly reduced the immobility time | M50, Test, mean log M50 frequency (SEM) [2, 5]: 2.02 (0.02) log/Hz; M50, Baseline, mean log M50 frequency (SEM) [2, 8]: 2.00 (0.02) log/Hz
CN[C@]1(c2ccccc2Cl)CCCCC1=O [S(+)-ketamine] | markedly reduced the immobility time | did not reduce the immobility time | increased the CPP score in a dose-dependent manner | 1.98 log/Hz | 1.88 log/Hz | 1.90 log/Hz | 2.07 log/Hz | 1.95 log/Hz | 1.97 (0.02) log/Hz | 1.86 (0.02) log/Hz | 1.87 (0.02) log/Hz | 1.98 (0.01) log/Hz | 1.87 (0.02) log/Hz | 10, 30 anhedonia | significant downward shift in the stimulation-frequency curve | markedly reduced the immobility time | did not reduce the immobility time | Plasma levels of S analyzed (Chronic pain patients): Plasma levels of S analyzed (50-400 ng/ml); M50, Test, mean log M50 frequency ([2]; 15 mg/kg (so in the source) i.p., 10 rats): 2.00 log/Hz; M50, Baseline, mean log M50 frequency (SEM) ([2]; baseline session before dosing on the 15 mg/kg (so in the source) test day, 10 rats): 1.97 (0.01) log/Hz; antidepressant effects compared with RS(+/−)-ketamine (0.5 mg/kg, i.v.) (patients with depression; 0.25 mg/kg i.v., treatment-resistant patients with MDD, case report, Non Patent Literature 14): weaker; effective oral doses in patients with depression (patients with depression; oral, Non Patent Literatures 15 and 16): 1.25 mg/kg

— patent publication US11426367B2, “Methods of treating substance abuse” (Perception Neuroscience, Inc., priority 2018, dated 2022)
